Assay results as given in patent EP3789378A1, “PIPERIDINES OR PIPERIDONES SUBSTITUTED WITH UREA AND HETEROARYL” (Grünenthal GmbH, priority 2019, dated 2021).
pEC50: −log10 of the molar value.

These compounds were tested against T1, h FPR2 (Homo sapiens, UniProt P25090) (assay: Agonistic activity in hFPR2-Aq-CHO cells (FLIPR Calcium 5 fluorescence assay)). Conditions: 11 point half log dilution, final assay concentration from 10µM.
T1 construct: expressed in transfected cells
T1 sequence (P25090 1-351): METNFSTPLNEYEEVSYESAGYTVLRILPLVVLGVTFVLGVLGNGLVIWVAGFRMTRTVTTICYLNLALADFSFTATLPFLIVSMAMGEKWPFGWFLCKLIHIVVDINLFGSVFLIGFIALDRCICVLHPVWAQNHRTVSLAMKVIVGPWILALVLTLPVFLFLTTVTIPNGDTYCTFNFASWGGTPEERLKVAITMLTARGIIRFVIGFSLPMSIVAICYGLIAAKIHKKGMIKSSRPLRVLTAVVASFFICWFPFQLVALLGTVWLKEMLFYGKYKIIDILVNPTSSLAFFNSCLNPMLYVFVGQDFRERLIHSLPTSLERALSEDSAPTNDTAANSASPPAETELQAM
Assay type: cell-based
In short: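 EC50 reflects the compound-evoked rise in Calcium 5 fluorescence over basal, recorded for 5 min on FLIPR and compared with no-compound wells. Dye-loaded hFPR2-Aq-CHO cells received half-log dilutions from 10 µM to 100 pM final in pH 7.4 HBSS buffer.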
`COc1ccc([C@@H]2CN(CCS(C)(=O)=O)CC[C@H]2NC(=O)Nc2cc(C)ns2)nc1` (relative stereo) [Ex-148, trans-1-[3-(5-Methoxy-pyridin-2-yl)-1-(2-methylsulfonyl-ethyl)-piperidin-4-yl]-3-(3-methyl-isothiazol-5-yl)-urea] gave a pEC50 of 8.22. `COc1ccc([C@@H]2CN(CC(F)F)CC[C@H]2NC(=O)Nc2ccccc2)nc1` (relative stereo) [Ex-150, trans-1-[1-(2,2-Difluoro-ethyl)-3-(5-methoxy-pyridin-2-yl)-piperidin-4-yl]-3-phenyl-urea] showed a pEC50 of 8.52. `COc1ccc([C@@H]2CN(C(=O)C3CCNCC3)CC[C@H]2NC(=O)Nc2ccccc2)nc1` (relative stereo) [Ex-151, trans-1-[3-(5-Methoxy-pyridin-2-yl)-1-(piperidine-4-carbonyl)-piperidin-4-yl]-3-phenyl-urea] showed a pEC50 of 7.46. `O=C(Nc1ccccc1)N[C@@H]1CCN(CC(F)F)C[C@H]1c1ccc(Cl)cn1` (relative stereo) [Ex-153, trans-1-[3-(5-Chloro-pyridin-2-yl)-1-(2,2-difluoro-ethyl)-piperidin-4-yl]-3-phenyl-urea] gave a pEC50 of 7.92. In the case of `COCCN1CC[C@@H](NC(=O)Nc2ccc(C#N)cc2)[C@H](c2ccc(OC)cn2)C1` (relative stereo) [Ex-154, trans-1-(4-Cyano-phenyl)-3-[1-(2-methoxy-ethyl)-3-(5-methoxy-pyridin-2-yl)-piperidin-4-yl]-urea], the pEC50 was 8.00. `COc1ccc([C@@H]2CN(CC3(C#N)CC3)CC[C@H]2NC(=O)Nc2ccc(Cl)cc2)nc1` (relative stereo) [Ex-155, trans-1-(4-Chlorophenyl)-3-[1-[(1-cyano-cyclopropyl)-methyl]-3-(5-methoxy-pyridin-2-yl)-piperidin-4-yl]-urea] showed a pEC50 of 10.05. For `COc1ccc([C@@H]2CN(C(=O)C3CCN(C)CC3)CC[C@H]2NC(=O)Nc2ccccc2)nc1` (relative stereo) [Ex-156, trans-1-[3-(5-Methoxy-pyridin-2-yl)-1-(1-methyl-piperidine-4-carbonyl)-piperidin-4-yl]-3-phenyl-urea], the pEC50 was 7.24. Compound `COc1ccc([C@@H]2CN(C(=O)CN(C)C)CC[C@H]2NC(=O)Nc2ccccc2)nc1` (relative stereo) [Ex-157, trans-1-[1-(2-Dimethylamino-acetyl)-3-(5-methoxy-pyridin-2-yl)-piperidin-4-yl]-3-phenyl-urea] has a pEC50 of 7.09. `COCCCN1CC[C@@H](NC(=O)Nc2ccccc2)[C@H](c2ccc(OC)cn2)C1` (relative stereo) [Ex-158, trans-1-[1-(3-Methoxy-propyl)-3-(5-methoxy-pyridin-2-yl)-piperidin-4-yl]-3-phenyl-urea] was tested, and the pEC50 was 7.51. Work on `COc1ccc([C@@H]2CN(CCCO)CC[C@H]2NC(=O)Nc2ccccc2)nc1` (relative stereo) [Ex-159, trans-1-[1-(3-Hydroxy-propyl)-3-(5-methoxy-pyridin-2-yl)-piperidin-4-yl]-3-phenyl-urea] yielded a pEC50 of 7.24. `COc1ccc([C@@H]2CN(CCS(C)(=O)=O)CC[C@H]2NC(=O)Nc2ccccc2)nc1` (relative stereo) [Ex-160, trans-1-[3-(5-Methoxy-pyridin-2-yl)-1-(2-methylsulfonyl-ethyl)-piperidin-4-yl]-3-phenyl-urea] showed a pEC50 of 7.06. For `COc1ccc([C@@H]2CN(CC3COC3)CC[C@H]2NC(=O)Nc2ccccc2)nc1` (relative stereo) [Ex-161, trans-1-[3-(5-Methoxy-pyridin-2-yl)-1-(oxetan-3-yl-methyl)-piperidin-4-yl]-3-phenyl-urea], the pEC50 was 7.55. With `COc1ccc([C@@H]2CN(CC3(O)CC3)CC[C@H]2NC(=O)Nc2ccc(Cl)cc2)nc1` (relative stereo) [Ex-163, trans-1-(4-Chlorophenyl)-3-[1-[(1-hydroxy-cyclopropyl)-methyl]-3-(5-methoxy-pyridin-2-yl)-piperidin-4-yl]-urea] the pEC50 was 9.10. `COc1ccc([C@@H]2CN(CCO)CC[C@H]2NC(=O)Nc2ccccc2)nc1` (relative stereo) [Ex-164, trans-1-[1-(2-Hydroxy-ethyl)-3-(5-methoxy-pyridin-2-yl)-piperidin-4-yl]-3-phenyl-urea] showed a pEC50 of 7.25. `O=C(Nc1ccccc1)N[C@@H]1CCN(C(=O)C2CCNCC2)C[C@H]1c1ccc(Cl)cn1` (relative stereo) [Ex-167, trans-1-[3-(5-Chloro-pyridin-2-yl)-1-(piperidine-4-carbonyl)-piperidin-4-yl]-3-phenyl-urea] showed a pEC50 of 7.07.

Same assay, conditions: agonistic response at 0.1µM
`COc1ccc([C@@H]2CN(C3CCS(=O)(=O)CC3)CC[C@H]2NC(=O)Nc2cc(C)ns2)nc1` (relative stereo) [Ex-149, trans-1-[1-(1,1-Dioxo-thian-4-yl)-3-(5-methoxy-pyridin-2-yl)-piperidin-4-yl]-3-(3-methyl-isothiazol-5-yl)-urea] showed an activation at 0.1 µM of 25%. With `O=C(Nc1ccccc1)N[C@@H]1CCN(CCO)C[C@H]1c1ccc(Cl)cn1` (relative stereo) [Ex-152, trans-1-[3-(5-Chloro-pyridin-2-yl)-1-(2-hydroxy-ethyl)-piperidin-4-yl]-3-phenyl-urea] the activation at 0.1 µM was 25%. `COc1ccc([C@@H]2CN(C3COC3)CC[C@H]2NC(=O)Nc2ccccc2)nc1` (relative stereo) [Ex-162, trans-1-[3-(5-Methoxy-pyridin-2-yl)-1-(oxetan-3-yl)-piperidin-4-yl]-3-phenyl-urea] showed an activation at 0.1 µM of 34%. Compound `COc1ccc([C@@H]2CNCC[C@H]2NC(=O)Nc2ccc(Cl)cc2)nc1` (relative stereo) [Ex-169, trans-1-(4-Chlorophenyl)-3-[3-(5-methoxy-pyridin-2-yl)-piperidin-4-yl]-urea] has an activation at 0.1 µM of 23%. `COc1ccc([C@@H]2CN(CC(N)=O)CC[C@H]2NC(=O)Nc2ccc(Cl)cc2)nc1` (relative stereo) [Ex-171, trans-2-[4-[[(4-Chlorophenyl)-carbamoyl]amino]-3-(5-methoxy-pyridin-2-yl)-piperidin-1-yl]-acetamide] gave an activation at 0.1 µM of 3%. With `COc1ccc([C@@H]2CN(CC3CC3)CC[C@H]2NC(=O)Nc2ccc(Cl)cc2)nc1` (relative stereo) [Ex-173, trans-1-(4-Chlorophenyl)-3-[1-(cyclopropyl-methyl)-3-(5-methoxy-pyridin-2-yl)-piperidin-4-yl]-urea] the activation at 0.1 µM was 44%. In the case of `COc1ccc([C@@H]2CN(CC(F)F)CC[C@H]2NC(=O)Nc2ccc(C#N)cc2)nc1` (relative stereo) [Ex-175, trans-1-(4-Cyano-phenyl)-3-[1-(2,2-difluoro-ethyl)-3-(5-methoxy-pyridin-2-yl)-piperidin-4-yl]-urea], the activation at 0.1 µM was 17%. For `COc1ccc([C@@H]2CN(CC(C)(C)O)CC[C@H]2NC(=O)Nc2cc(C)ns2)nc1` (relative stereo) [Ex-176, trans-1-[1-(2-Hydroxy-2-methyl-propyl)-3-(5-methoxy-pyridin-2-yl)-piperidin-4-yl]-3-(3-methyl-isothiazol-5-yl)-urea], the activation at 0.1 µM was 5%. `COc1ccc([C@@H]2CN(CC(C)(C)O)CC[C@H]2NC(=O)Nc2ccc(Cl)cc2)nc1` (relative stereo) [Ex-178, trans-1-(4-Chlorophenyl)-3-[1-(2-hydroxy-2-methyl-propyl)-3-(5-methoxy-pyridin-2-yl)-piperidin-4-yl]-urea] gave an activation at 0.1 µM of 0.2%.
